What is called Ki is a measure of affinity in units of concentration, obtained from inhibition or displacement.

Assay [1] can be described thus: Predicted affinity for imidazoline receptor I2 by three field CoMFA model.
Experiment in assay [2]: as above
The source holds these as a separate data set.

Experiment in assay [3]: as above
This is another data set of the same source.

Take `c1ccc([C@H]2C[C@@H]2C2=NCCN2)cc1`: the Ki in assay [1] was 251 nM.
For the compound `c1ccc([C@H]2C[C@H]2C2=NCCN2)cc1`, the Ki in assay [2] is 724 nM.
As to `c1ccc([C@@H]2C[C@H]2C2=NCCN2)cc1`, the Ki in assay [3] is 23 nM.
With `c1ccc([C@@H]2C[C@@H]2C2=NCCN2)cc1`, the inhibition constant Ki in assay [2] was 331 nM.

These data come from BindingDB's records for doi:10.1021/jm991049m (University of Camerino, 1999).
